From ChEMBL document CHEMBL4346757, “Synthesis and biological evaluation of 7-methoxy-1-(3,4,5-trimethoxyphenyl)-4,5-dihydro-2H-benzo[e]indazoles as new colchicine site inhibitors” (Bioorg Med Chem Lett, 2019)

Experiments:
Type in all cases: functional
SNB-75 = experiment: Growth inhibition of human SNB75 cells assessed as cell growth at 0.01 uM after 48 hrs by SRB assay relative to control; settings: SNB-75, 48 h, read-out: Activity
UACC-257 [1] = experiment: Growth inhibition of human UACC257 cells assessed as cell growth at 0.01 uM after 48 hrs by SRB assay relative to control; settings: UACC-257, 48 h, read-out: Activity
SN12C = experiment: Growth inhibition of human SN12C cells assessed as cell growth at 0.01 uM after 48 hrs by SRB assay relative to control; settings: read-out: Activity
SR = experiment: Growth inhibition of human SR cells assessed as cell growth at 0.1 uM after 48 hrs by SRB assay relative to control; settings: read-out: Activity
NCI-H460 = experiment: Growth inhibition of human NCI-H460 cells assessed as cell growth at 0.1 uM after 48 hrs by SRB assay relative to control; settings: NCI-H460, 48 h, read-out: Activity
SF-295 [2] = experiment: Growth inhibition of human SF295 cells assessed as cell growth at 0.1 uM after 48 hrs by SRB assay relative to control; settings: SF-295, 48 h, read-out: Activity
SK-OV-3 = experiment: Growth inhibition of human SKOV3 cells assessed as cell growth at 0.1 uM after 48 hrs by SRB assay relative to control; settings: SK-OV-3, 48 h, read-out: Activity
BT-549 [3] = experiment: Growth inhibition of human BT549 cells assessed as cell growth at 0.1 uM after 48 hrs by SRB assay relative to control; settings: BT-549, 48 h, read-out: Activity
HCC 2998 [4] = experiment: Growth inhibition of human HCC2998 cells assessed as cell growth at 1 uM after 48 hrs by SRB assay relative to control; settings: HCC 2998, 48 h, read-out: Activity
OVCAR-3 [5] = experiment: Growth inhibition of human OVCAR3 cells assessed as cell growth at 1 uM after 48 hrs by SRB assay relative to control; settings: OVCAR-3, 48 h, read-out: Activity
786-0 [6] = experiment: Growth inhibition of human 786-0 cells assessed as cell growth at 1 uM after 48 hrs by SRB assay relative to control; settings: 786-0, 48 h, read-out: Activity
BT-549 [7] = experiment: Growth inhibition of human BT549 cells assessed as cell growth at 1 uM after 48 hrs by SRB assay relative to control; settings: BT-549, 48 h, read-out: Activity
RPMI-8226 = experiment: Growth inhibition of human RPMI8226 cells assessed as cell growth at 10 uM after 48 hrs by SRB assay relative to control; settings: RPMI-8226, 48 h, read-out: Activity
HCT-116 = experiment: Growth inhibition of human HCT116 cells assessed as cell growth at 10 uM after 48 hrs by SRB assay relative to control; settings: HCT-116, 48 h, read-out: Activity
KM12 = experiment: Growth inhibition of human KM12 cells assessed as cell growth at 10 uM after 48 hrs by SRB assay relative to control; settings: KM12, 48 h, read-out: Activity
SK-MEL-28 = experiment: Growth inhibition of human SK-MEL-28 cells assessed as cell growth at 10 uM after 48 hrs by SRB assay relative to control; settings: SK-MEL-28, 48 h, read-out: Activity
UACC-257 [8] = experiment: Growth inhibition of human UACC257 cells assessed as cell growth at 10 uM after 48 hrs by SRB assay relative to control; settings: UACC-257, 48 h, read-out: Activity
MDA-MB-468 = experiment: Growth inhibition of human MDA-MB-468 cells assessed as cell growth at 10 uM after 48 hrs by SRB assay relative to control; settings: MDA-MB-468, 48 h, read-out: Activity
HOP-92 = experiment: Growth inhibition of human HOP92 cells assessed as cell growth at 100 uM after 48 hrs by SRB assay relative to control; settings: HOP-92, 48 h, read-out: Activity
NCI-H322M = experiment: Growth inhibition of human NCI-H322M cells assessed as cell growth at 100 uM after 48 hrs by SRB assay relative to control; settings: read-out: Activity
HCC 2998 [9] = experiment: Growth inhibition of human HCC2998 cells assessed as cell growth at 100 uM after 48 hrs by SRB assay relative to control; settings: HCC 2998, 48 h, read-out: Activity
A549 = experiment: Cytotoxicity against human A549/ATCC cells assessed as growth inhibition after 48 hrs by SRB assay; settings: A549, 48 h
SW-620 = experiment: Cytotoxicity against human SW620 cells assessed as growth inhibition after 48 hrs by SRB assay; settings: SW-620, 48 h
SF-295 [10] = experiment: Cytotoxicity against human SF295 cells assessed as growth inhibition after 48 hrs by SRB assay; settings: SF-295, 48 h
OVCAR-3 [11] = experiment: Cytotoxicity against human OVCAR3 cells assessed as growth inhibition after 48 hrs by SRB assay; settings: OVCAR-3, 48 h
786-0 [12] = experiment: Cytotoxicity against human 786-0 cells assessed as growth inhibition after 48 hrs by SRB assay; settings: 786-0, 48 h
DU-145 = experiment: Cytotoxicity against human DU145 cells assessed as growth inhibition after 48 hrs by SRB assay; settings: DU-145, 48 h
[13] = read-out: LC50 (the source's name)
[14] = read-out: pLC50 (the source's name) (converted)

What does the source list for `COc1ccc2c(c1)CCc1n[nH]c(-c3cc(OC)c(OC)c(OC)c3)c1-2`?
growth at 0.01 µM (SNB-75): 12%; growth at 0.01 µM (UACC-257 [1]): 47%; growth at 0.01 µM (SN12C): 39%; growth at 0.1 µM (SR): 18%; growth at 0.1 µM (NCI-H460): 2%; growth at 0.1 µM (SF-295 [2]): 5%; growth at 0.1 µM (SK-OV-3): -2%; growth at 0.1 µM (BT-549 [3]): 1%; growth at 1 µM (HCC 2998 [4]): 14%; growth at 1 µM (OVCAR-3 [5]): 17%; growth at 1 µM (786-0 [6]): 14%; growth at 1 µM (BT-549 [7]): 3%; growth at 10 µM (RPMI-8226): 35%; growth at 10 µM (HCT-116): -15%; growth at 10 µM (KM12): 6%; growth at 10 µM (SK-MEL-28): 34%; growth at 10 µM (UACC-257 [8]): 56%; growth at 10 µM (MDA-MB-468): -5%; growth at 100 µM (HOP-92): -50%; growth at 100 µM (NCI-H322M): -21%; growth at 100 µM (HCC 2998 [9]): -80%; GI50 (A549; read-out: GI50): < 0.01 µM; CC50 (A549; [13]): > 100 µM; TGI (A549; read-out: TGI): 19.5 µM; GI50 (A549; read-out: pGI50 (converted)): < 0.01 µM; CC50 (A549; [14]): > 100 µM; TGI (A549; read-out: pTGI (converted)): 19.5 µM; GI50 (SW-620; read-out: GI50): < 0.01 µM; CC50 (SW-620; [13]): 52.2 µM; TGI (SW-620; read-out: TGI): 14.5 µM; GI50 (SW-620; read-out: pGI50 (converted)): < 0.01 µM; CC50 (SW-620; [14]): 52.5 µM; TGI (SW-620; read-out: pTGI (converted)): 14.5 µM; GI50 (SF-295 [10]; read-out: GI50): < 0.01 µM; CC50 (SF-295 [10]; [13]): 64.5 µM; TGI (SF-295 [10]; read-out: TGI): 3.21 µM; GI50 (SF-295 [10]; read-out: pGI50 (converted)): < 0.01 µM; CC50 (SF-295 [10]; [14]): 64.6 µM; TGI (SF-295 [10]; read-out: pTGI (converted)): 3.24 µM; GI50 (OVCAR-3 [11]; read-out: GI50): < 0.01 µM; LC50 (50% lethal concentration) (OVCAR-3 [11]; read-out: LC50): 75.5 µM; TGI (OVCAR-3 [11]; read-out: TGI): 14.7 µM; GI50 (OVCAR-3 [11]; read-out: pGI50 (converted)): < 0.01 µM; LC50 (50% lethal concentration) (OVCAR-3 [11]; read-out: pLC50 (converted)): 75.9 µM; TGI (OVCAR-3 [11]; read-out: pTGI (converted)): 14.8 µM; GI50 (786-0 [12]; read-out: GI50): < 0.01 µM; CC50 (786-0 [12]; [13]): > 100 µM; TGI (786-0 [12]; read-out: TGI): 11.5 µM; GI50 (786-0 [12]; read-out: pGI50 (converted)): < 0.01 µM; CC50 (786-0 [12]; [14]): > 100 µM; TGI (786-0 [12]; read-out: pTGI (converted)): 11.5 µM; GI50 (DU-145; read-out: GI50): < 0.01 µM; CC50 (DU-145; [13]): > 100 µM; TGI (DU-145; read-out: TGI): > 100 µM; GI50 (DU-145; read-out: pGI50 (converted)): < 0.01 µM; CC50 (DU-145; [14]): > 100 µM; TGI (DU-145; read-out: pTGI): > 100 µM
